# Source: patent US20150313228A1, “SYNERGISTIC HERBICIDAL COMBINATIONS AND METHODS OF USE” (priority 2012, published 2015)
# Several values for one entry are separate records, joined by “and”; a condition that tells them apart may be missing. Equal values may be shown once.
# Tested on: broad-leaf and grass weed species
# Assay: Field testing of pre-emergence application of dicamba and acetochlor in Argentina and/or South Africa (Example 10);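 also: percent weed control in field trials, rated at 14 days (early) and 28 days (late) after treatment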
# Conditions: for percent control X (ACETOCHLOR ALONE): early rating (14 day); for X (acetochlor alone): late rating (28 day)
smiles,measurement,setting,value
"CCOCN(C(=O)CCl)c1c(C)cccc1CC [Acetochlor, 2-chloro-N-(ethoxymethyl)-6′-ethyl-o-acetotoluidide]",percent control X (ACETOCHLOR ALONE),"AMADE, 630 g/ha",96.7%
same,X (acetochlor alone),"AMADE, 630 g/ha",57.1%
same,percent control X (ACETOCHLOR ALONE),"AMADE, 1260 g/ha",99.4%
same,X (acetochlor alone),"AMADE, 1260 g/ha",69.4%
same,percent control X (ACETOCHLOR ALONE),"AMAQU, 630 g/ha",64.3%
same,X (acetochlor alone),"AMAQU, 630 g/ha",48.8%
same,percent control X (ACETOCHLOR ALONE),"AMAQU, 1260 g/ha",81.4%
same,X (acetochlor alone),"AMAQU, 1260 g/ha",70.0%
same,percent control X (ACETOCHLOR ALONE),"ANOCR, 630 g/ha",47.0%
same,X (acetochlor alone),"ANOCR, 630 g/ha",31.6%
same,percent control X (ACETOCHLOR ALONE),"ANOCR, 1260 g/ha",59.5%
same,X (acetochlor alone),"ANOCR, 1260 g/ha",45.2%
same,percent control X (ACETOCHLOR ALONE),"BIDPI, 630 g/ha",17.5%
same,X (acetochlor alone),"BIDPI, 630 g/ha",0.0%
same,percent control X (ACETOCHLOR ALONE),"BIDPI, 1260 g/ha",47.5%
same,X (acetochlor alone),"BIDPI, 1260 g/ha",27.5%
same,X (acetochlor alone),"BRAER, 630 g/ha",47.5%
same,X (acetochlor alone),"BRAER, 1260 g/ha",65.0%
same,percent control X (ACETOCHLOR ALONE),"CHEAL, 630 g/ha",46.7%
same,X (acetochlor alone),"CHEAL, 630 g/ha",80.3%
same,percent control X (ACETOCHLOR ALONE),"CHEAL, 1260 g/ha",50.0%
same,X (acetochlor alone),"CHEAL, 1260 g/ha",77.0%
same,percent control X (ACETOCHLOR ALONE),"CHRGA, 630 g/ha",0.0%
same,X (acetochlor alone),"CHRGA, 630 g/ha",0.0%
same,percent control X (ACETOCHLOR ALONE),"CHRGA, 1260 g/ha",86.0%
same,X (acetochlor alone),"CHRGA, 1260 g/ha",10.0%
same,percent control X (ACETOCHLOR ALONE),"COMBE, 630 g/ha",0.0%
same,X (acetochlor alone),"COMBE, 630 g/ha",0.0%
same,percent control X (ACETOCHLOR ALONE),"COMBE, 1260 g/ha",12.5%
same,X (acetochlor alone),"COMBE, 1260 g/ha",0.0%
same,percent control X (ACETOCHLOR ALONE),"CONFA, 630 g/ha",10.0%
same,X (acetochlor alone),"CONFA, 630 g/ha",0.0%
same,percent control X (ACETOCHLOR ALONE),"CONFA, 1260 g/ha",77.5%
same,X (acetochlor alone),"CONFA, 1260 g/ha",12.5%
same,percent control X (ACETOCHLOR ALONE),"CYNDA, 630 g/ha",30.0%
same,percent control X (ACETOCHLOR ALONE),"CYNDA, 1260 g/ha",49.2%
same,percent control X (ACETOCHLOR ALONE),"CYPES, 630 g/ha",0.0%
same,X (acetochlor alone),"CYPES, 630 g/ha",26.3%
same,percent control X (ACETOCHLOR ALONE),"CYPES, 1260 g/ha",0.0%
same,X (acetochlor alone),"CYPES, 1260 g/ha",33.3%
same,percent control X (ACETOCHLOR ALONE),"CYPRO, 630 g/ha",44.1%
same,X (acetochlor alone),"CYPRO, 630 g/ha",17.1%
same,percent control X (ACETOCHLOR ALONE),"CYPRO, 1260 g/ha",51.0%
same,X (acetochlor alone),"CYPRO, 1260 g/ha",25.8%
same,percent control X (ACETOCHLOR ALONE),"DATFE, 630 g/ha",62.2%
same,X (acetochlor alone),"DATFE, 630 g/ha",44.5%
same,percent control X (ACETOCHLOR ALONE),"DATFE, 1260 g/ha",72.3%
same,X (acetochlor alone),"DATFE, 1260 g/ha",58.5%
same,percent control X (ACETOCHLOR ALONE),"DIGER, 630 g/ha",0.0%
same,X (acetochlor alone),"DIGER, 630 g/ha",0.0%
same,percent control X (ACETOCHLOR ALONE),"DIGER, 1260 g/ha",86.0%
same,X (acetochlor alone),"DIGER, 1260 g/ha",12.5% and 12.4%
same,percent control X (ACETOCHLOR ALONE),"DIGSA, 630 g/ha",63.1%
same,X (acetochlor alone),"DIGSA, 630 g/ha",51.3%
same,percent control X (ACETOCHLOR ALONE),"DIGSA, 1260 g/ha",72.1%
same,X (acetochlor alone),"DIGSA, 1260 g/ha",59.2%
same,X (acetochlor alone),"DTTAE, 630 g/ha",0.0%
same,X (acetochlor alone),"DTTAE, 1260 g/ha",10.0%
same,percent control X (ACETOCHLOR ALONE),"ELEAF, 630 g/ha",88.3%
same,X (acetochlor alone),"ELEAF, 630 g/ha",20.3%
same,percent control X (ACETOCHLOR ALONE),"ELEAF, 1260 g/ha",85.9%
same,X (acetochlor alone),"ELEAF, 1260 g/ha",28.3%
same,percent control X (ACETOCHLOR ALONE),"HIBCA, 630 g/ha",55.0%
same,X (acetochlor alone),"HIBCA, 630 g/ha",37.5%
same,percent control X (ACETOCHLOR ALONE),"HIBCA, 1260 g/ha",89.5%
same,X (acetochlor alone),"HIBCA, 1260 g/ha",96.5%
same,X (acetochlor alone),"IPOBA, 630 g/ha",0.0%
same,X (acetochlor alone),"IPOBA, 1260 g/ha",0.0%
same,percent control X (ACETOCHLOR ALONE),"IPOPD, 630 g/ha",27.5%
same,X (acetochlor alone),"IPOPD, 630 g/ha",21.2%
same,percent control X (ACETOCHLOR ALONE),"IPOPD, 1260 g/ha",71.3%
same,X (acetochlor alone),"IPOPD, 1260 g/ha",63.0%
same,percent control X (ACETOCHLOR ALONE),"OVERALL, 630 g/ha",49.8%
same,percent control X (ACETOCHLOR ALONE),"OVERALL, 1260 g/ha",64.2%
same,X (acetochlor alone),"Overall, 630 g/ha",37.8%
same,X (acetochlor alone),"Overall, 1260 g/ha",50.8%
same,percent control X (ACETOCHLOR ALONE),"PERCENT WEED FREE, 1260 g/ha",75.5%
same,percent control X (ACETOCHLOR ALONE),"POROL, 630 g/ha",38.6%
same,X (acetochlor alone),"POROL, 630 g/ha",26.7%
same,percent control X (ACETOCHLOR ALONE),"POROL, 1260 g/ha",47.5%
same,X (acetochlor alone),"POROL, 1260 g/ha",37.8%
same,X (acetochlor alone),"Percent Weed Free, 630 g/ha",53.2%
same,X (acetochlor alone),"Percent Weed Free, 1260 g/ha",63.8%
same,percent control X (ACETOCHLOR ALONE),"RCHBR, 630 g/ha",57.0%
same,X (acetochlor alone),"RCHBR, 630 g/ha",22.5%
same,percent control X (ACETOCHLOR ALONE),"RCHBR, 1260 g/ha",87.7%
same,X (acetochlor alone),"RCHBR, 1260 g/ha",67.4%
same,percent control X (ACETOCHLOR ALONE),"TAGMI, 630 g/ha",89.9%
same,X (acetochlor alone),"TAGMI, 630 g/ha",45.8%
same,percent control X (ACETOCHLOR ALONE),"TAGMI, 1260 g/ha",95.3%
same,X (acetochlor alone),"TAGMI, 1260 g/ha",65.0%
same,percent control X (ACETOCHLOR ALONE),"XANST, 630 g/ha",59.7%
same,X (acetochlor alone),"XANST, 630 g/ha",33.7%
same,percent control X (ACETOCHLOR ALONE),"XANST, 1260 g/ha",72.6%
same,X (acetochlor alone),"XANST, 1260 g/ha",37.7%
